Columns and labels:
Jurkat cells [1] = assay: [Ca^2+ ]i response of Jurkat cells (Indo-1, flow cytometry); type: cell-based, human
Experimental: FIG. 14, Panel A and B. Methionine enkephalin and opiate receptor agonists selective for […] stimulate transmembrane signaling in Jurkat cells. Cells were labeled with Indo-1, washed twice in serum-free medium and held at 4° C. until analyzed. Indo-1 fluorescence was measured using flow cytometry as previously described (Heagy et al., 1992; Ledbetter et al., 1987; Chang et al., 1989; Rabinovitch et al., 1986). The fluorescence for nonstimulated cells (measured in medium, alone) was arbitrarily set at 1.0. Data are presented as per cent increase in the response [(r-baseline) x 100%]. Baseline [Ca^2+ ]i value measured for Jurkat cells (n=4) was 80±40 nM. Baseline Panel A, Jurkat cell response to MET-ENK (0.1 nM, 10 nM and 1 μM) and to the d- selective agonist Dermenkephalin (10 nM). Panel B, Jurkat cell response to the d- selective agonist (D-Pen ^2,5, p Cl-Phe^4)-ENK (0.1 nM. 10 nM. 1 μM).
The inventors (Heagy et al., 1992) have previously shown that when applied to NALM 6 cells the κ-1 agonist U69,953 stimulates a rapid increase in [Ca^2+ ]i. […] In order to determine whether the sites the inventors have identified using the δ-selective agonists also elicit Ca^2+ responses the inventors measured the effects of opioid peptides and δ-selective agonists on the calcium response. […] These studies provide evidence that Jurkat cells have functional δ opiate receptor sites which stimulate transmembrane signaling via rapid increases in [Ca^2+ ]i.

NALM 6 cells = assay: Migration (chemotaxis) of NALM 6 pre-B ALL cells; type: cell-based, human; conditions: for cell migration (cell counts): NALM 6, peptide 100 nM, spontaneous locomotion 2190; for concentration inducing migration: NALM 6 and LAZ 221; for effect on migration of pre-B ALL cells: NALM 6 and LAZ 221 cells
LAZ 221 cells = assay: Migration (chemotaxis) of LAZ 221 pre-B ALL cells; type: cell-based, human; conditions: LAZ 221, peptide 100 nM; spontaneous locomotion 1886
LAZ 388 cells = assay: Migration (chemotaxis) of LAZ 388 EBV-transformed B cells; type: cell-based, human; conditions: LAZ 388, peptide 100 nM; spontaneous locomotion 1938
human T cells [2] = conditions: Heagy et al., 1990; cited from earlier work
COS (Vector Control) = assay: cAMP accumulation in COS cells (vector control); type: cell-based, monkey; conditions: COS (Vector Control); MET-ENK 0.01 nM, naloxone 10 μM, forskolin 0.1 μM; controls 40.2 and 38.8
EBI1 = biological target: T1, EBI1 (Homo sapiens, UniProt P32248)
T1 sequence (P32248 25-378): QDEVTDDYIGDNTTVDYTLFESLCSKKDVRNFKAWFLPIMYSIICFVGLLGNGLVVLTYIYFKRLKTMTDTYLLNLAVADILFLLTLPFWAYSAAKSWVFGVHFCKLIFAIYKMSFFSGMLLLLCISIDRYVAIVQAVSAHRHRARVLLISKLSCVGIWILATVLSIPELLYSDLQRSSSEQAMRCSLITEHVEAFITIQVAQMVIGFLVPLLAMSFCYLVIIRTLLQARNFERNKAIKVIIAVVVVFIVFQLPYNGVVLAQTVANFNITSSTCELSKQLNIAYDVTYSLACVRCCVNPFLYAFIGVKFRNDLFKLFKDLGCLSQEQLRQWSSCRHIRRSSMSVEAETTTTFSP

[3] = biological target: Jurkat cells (T cell leukemia cell line), enkephalin/opiate binding sites not defined as a molecule; assay: flow cytometry of MET-ENK-FITC on Jurkat cells, two-site model, low affinity site
[4] = biological target: NALM 6 cells (pre-B acute lymphoblastic leukemia cell line), enkephalin/opiate binding sites not defined as a molecule; assay: flow cytometry of MET-ENK-FITC on NALM 6 cells, two-site model, high affinity site
[5] = biological target: NALM 6 cells (pre-B acute lymphoblastic leukemia cell line), enkephalin/opiate binding sites not defined as a molecule; assay: flow cytometry of MET-ENK-FITC on NALM 6 cells, two-site model, low affinity site
[6] = biological target: Jurkat cells (T cell leukemia cell line), enkephalin/opiate binding sites not defined as a molecule; assay: flow cytometry of MET-ENK-FITC on Jurkat cells, two-site model, high affinity site
human T cells [7] = assay: Migration of human peripheral blood T cells; type: cell-based
Jurkat cells [8] = tested on: Jurkat cells
[9] = tested on: lymphocytes and macrophages; conditions: animals; cited from earlier work
leukocytes = conditions: Lu et al., 1960; cited from earlier work
[10] = biological target: EBI1, novel lymphocyte R7G opioid binding protein (human); assay: radioligand filtration assay on membranes of EBI1-transfected COS cells; nonspecific binding with 50 µM naloxone

## (D-Pen^2,5, p-Cl-Phe^4)-ENK
Jurkat cells [1]
  [Ca^2+ ]i response: stimulated the Ca^2+ response
  concentration eliciting [Ca^2+ ]i response: 10^-8 to 10^-6 M

## C[C@@H](NC(=O)[C@@H](N)Cc1ccc(O)cc1)C(=O)NCC(=O)N(C)[C@@H](Cc1ccccc1)C(=O)NCCO [DAMGO, [D-Ala^2, Me-Phe^4, Gly(ol)^5]-enkephalin]
NALM 6 cells
  cell migration (cell counts): 5070 cell counts
  concentration inducing migration: ≤ 10^-10 M
  effect on migration of pre-B ALL cells: enhanced, albeit modestly, the migration of NALM 6 and LAZ 221 cells
LAZ 221 cells
  cell migration (cell counts): 4602 cell counts
LAZ 388 cells
  cell migration (cell counts): 2043 cell counts
Human T cells [2]
  human T cell migration: potent stimulants for the migration of isolated human T cells

## CSCC[C@H](NC=O)C(=O)N[C@@H](CC(C)C)C(=O)N[C@@H](Cc1ccccc1)C(=O)O [FMLP]
NALM 6 cells
  cell migration (cell counts): 3198 cell counts
  effect on migration of pre-B ALL cells: had no effect on the migration of the pre-B ALL cells
LAZ 221 cells
  cell migration (cell counts): 2906 cell counts
LAZ 388 cells
  cell migration (cell counts): 1914 cell counts

## C=C[C@@]1(C)CC(=O)[C@]2(O)[C@@]3(C)[C@@H](O)CCC(C)(C)[C@@H]3[C@H](O)[C@H](OC(C)=O)[C@@]2(C)O1 [Forskolin]
COS (Vector Control)
  cAMP: 130.5 fmoles/cell × 10^3
EBI1
  cAMP: 234.8 fmoles/cell × 10^3

## fluorescein derivative of methionine enkephalin (MET-ENK-FITC) (peptide)
[3]
  Kd: 181 nM
[4]
  Kd: 1.01 nM
[5]
  Kd: 318 nM
[6]
  Kd: 1.36 nM

## CC(C)C[C@H](NC(=O)[C@H](Cc1ccccc1)NC(=O)CNC(=O)CNC(=O)[C@@H](N)Cc1ccc(O)cc1)C(=O)O [LEU-ENK]
Human T cells [7]
  human lymphocyte / T cell migration: stimulate human lymphocyte migration
Human T cells [7]; human peripheral blood T cells
  lowest concentration at which T cell migration was detectable: 0.1 pM

## CC(C)C[C@@H](NC(=O)[C@H](Cc1ccccc1)NC(=O)CNC(=O)[C@@H](C)NC(=O)[C@@H](N)Cc1ccc(O)cc1)C(=O)O [DADLE, [D-Ala^2,D-Leu5]-enkephalin]
NALM 6 cells
  cell migration (cell counts): 6240 cell counts
  concentration inducing migration: ≤ 10^-10 M
  effect on migration of pre-B ALL cells: enhanced, albeit modestly, the migration of NALM 6 and LAZ 221 cells
Jurkat cells [8]
  specific binding, % of total: 50-60%
LAZ 221 cells
  cell migration (cell counts): 4405 cell counts
LAZ 388 cells
  cell migration (cell counts): 2283 cell counts
Human T cells [2]
  human T cell migration: potent stimulants for the migration of isolated human T cells

## CN1CC[C@]23c4c5ccc(O)c4O[C@H]2[C@@H](O)C=C[C@H]3[C@H]1C5 [morphine]
[9]
  lymphocyte trafficking in vivo: enhance lymphocyte trafficking
leukocytes
  leukocyte changes in rabbits: caused a leukocytosis in parallel with a depletion of lymphocyte blasts and other hematopoietic precursors in the bone marrow

## DPDPE ([D-Pen2,5]enkephalin), delta-selective opiate receptor agonist (peptide)
[10]
  Kd: 0.2 nM

Reference: patent US5753516A, “Screening method for ligands of the EBI-1 receptor” (priority 1995, dated 1998)
